Source: ChEMBL document CHEMBL3870303, “Substituted conformationally restricted guanidine derivatives: Probing the α2-adrenoceptors' binding pocket” (Eur J Med Chem, 2016)
The source made the active and inactive calls. No cut-off for these calls is given here.

Target: Adrenergic receptor alpha-2 (Homo sapiens) (UniProt P08913+P18825+P18089)
Assay: Antagonist activity at alpha-2 adrenergic receptor in human brain prefrontal cortex neural membranes assessed as inhibition of [35S]GTPgammaS binding after 120 mins by liquid scintillation counting
Format: functional, tissue-based

inhibition | SMILES
Active | c1ccc(CNC2=NCc3cccnc3N2Cc2ccc3c(c2)OCO3)cc1
Active | c1ccc2c(c1)CCN=C(NCc1ccc3c(c1)OCO3)N2

Target: T1, Adrenergic receptor alpha-2 (Homo sapiens, UniProt P08913+P18825+P18089)
T1 sequence (P08913 whole entry): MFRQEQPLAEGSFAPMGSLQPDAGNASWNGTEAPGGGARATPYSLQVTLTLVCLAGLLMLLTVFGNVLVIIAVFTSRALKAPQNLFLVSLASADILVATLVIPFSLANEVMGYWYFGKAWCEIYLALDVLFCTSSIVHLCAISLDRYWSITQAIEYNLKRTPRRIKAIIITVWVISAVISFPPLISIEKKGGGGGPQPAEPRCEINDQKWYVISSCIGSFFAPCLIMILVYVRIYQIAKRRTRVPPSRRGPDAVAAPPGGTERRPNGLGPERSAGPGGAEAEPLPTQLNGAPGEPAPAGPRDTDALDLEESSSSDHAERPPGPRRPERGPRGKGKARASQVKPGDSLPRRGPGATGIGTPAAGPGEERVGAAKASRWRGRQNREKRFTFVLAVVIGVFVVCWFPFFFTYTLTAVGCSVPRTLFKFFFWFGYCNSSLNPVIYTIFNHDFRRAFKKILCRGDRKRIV
T1 sequence (P18825 whole entry): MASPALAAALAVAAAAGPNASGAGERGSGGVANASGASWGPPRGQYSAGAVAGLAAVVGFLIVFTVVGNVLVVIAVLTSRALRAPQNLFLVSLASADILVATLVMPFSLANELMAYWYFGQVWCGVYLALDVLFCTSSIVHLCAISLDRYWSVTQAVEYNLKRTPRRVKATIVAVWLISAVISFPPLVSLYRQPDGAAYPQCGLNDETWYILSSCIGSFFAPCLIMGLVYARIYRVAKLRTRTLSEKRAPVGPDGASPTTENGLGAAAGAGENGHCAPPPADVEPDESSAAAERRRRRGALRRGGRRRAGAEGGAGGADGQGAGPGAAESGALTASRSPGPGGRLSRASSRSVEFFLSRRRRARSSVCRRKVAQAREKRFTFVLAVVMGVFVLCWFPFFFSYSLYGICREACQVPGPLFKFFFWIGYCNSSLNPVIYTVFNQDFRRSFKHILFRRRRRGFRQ
T1 sequence (P18089 whole entry): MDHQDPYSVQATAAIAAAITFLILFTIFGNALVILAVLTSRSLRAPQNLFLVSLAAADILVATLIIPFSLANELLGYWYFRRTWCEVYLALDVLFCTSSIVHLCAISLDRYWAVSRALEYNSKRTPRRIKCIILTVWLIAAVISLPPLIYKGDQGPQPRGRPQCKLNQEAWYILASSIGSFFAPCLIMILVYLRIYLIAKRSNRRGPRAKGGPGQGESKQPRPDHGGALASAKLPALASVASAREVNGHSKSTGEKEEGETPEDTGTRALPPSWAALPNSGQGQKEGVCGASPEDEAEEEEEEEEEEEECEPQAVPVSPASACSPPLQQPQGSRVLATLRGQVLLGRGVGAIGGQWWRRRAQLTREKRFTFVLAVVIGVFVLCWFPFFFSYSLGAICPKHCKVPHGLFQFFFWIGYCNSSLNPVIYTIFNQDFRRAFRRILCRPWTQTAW
Assay: Displacement of [3H]RX821002 from alpha-2 adrenergic receptor in human brain pre-frontal cortex neural membranes after 30 mins by liquid scintillation counting method

SMILES | pKi
c1ccc(CNC2=NCc3cccnc3N2Cc2ccc3c(c2)OCO3)cc1 | 5.15
c1ccc2c(c1)CCN=C(NCc1ccc3c(c1)OCO3)N2 | 6.64
CN(C)c1ccc2c(c1)CCN=C(NCCO)N2 | 4.99
COC1(C2=NCCN2)COc2ccccc2O1 (stereo not drawn) | 8.85
CCCN1C(NCc2ccccc2)=NCc2cccnc21 | 5.05
CCCN1C(N)=NCc2ccccc21 | 5.11
CCCN1C(N)=NCc2cccnc21 | 4.99
OCCN1C(NCc2ccccc2)=NCc2cccnc21 | 5.07
CN(C)c1ccc2c(c1)CCN=C(NCc1ccco1)N2 | 5.36

More lines, now with the values ahead:

pKi | SMILES
4.92 | c1ccc(CNC2=NCc3ccccc3N2c2ccccc2)cc1
6.14 | CN(C)c1ccc2c(c1)CCN=C(NCc1ccc3c(c1)OCO3)N2
5.85 | NC1=NCc2ccccc2N1c1ccccc1
6.55 | c1ccc(CNC2=NCc3ccccc3N2Cc2ccc3c(c2)OCO3)cc1
5.5 | OCCNC1=NCCc2cc3c(cc2N1)OCO3
5.81 | OCCNC1=NCCc2ccccc2N1
5.29 | CCCN1C(NCc2ccccc2)=NCc2ccccc21
